Columns and labels:
Assay type in all cases: cell-based
Citrobacter koseri 059 = assay: Comparison of glucoside substrates in semi-solid Columbia medium (Example 7); settings: 0.05 g/l + iron citrate 0.05 g/l
Listeria welshimeri 023 = assay: Effect of metal salts on the color of the marker part, substrate 50 mg/l in Columbia medium (Example 3)
Method: (§1) To the Columbia-base medium (46.37 g/l) supplemented with Alizarin-2-β-D-glucoside (50 mg/l), were added either Manganese chloride, Ammoniacal iron citrate, Tin chloride, or Aluminum sulfate, all at a concentration of 50 mg/l. A control medium with no metal salts was tested in parallel. After autoclaving, these various media were all used to prepare Petri dishes (20 ml per plate). […] It should be pointed out that intensity readings are in arbitrary units. The only purpose of giving these values is to make it possible to compare one strain with another in this respect. The same is true for the examples which follow. Similarly, the strains tested were taken from the Applicant's collection and the number given represents an internal reference specific to this collection. The same internal numbering system is also used in some of the examples given later on.

Listeria ivanovii 032 = assay: as above
Method: as §1

[1] = test system: Listeria monocytogenes 023; assay: as above
Method: as §1

Listeria innocua 029 = assay: as above
Method: as §1

Listeria grayi 078 = assay: as above
Method: as §1

Listeria ivanovii 020 = assay: as above
Method: as §1

Shigella sonnei = assay: β-galactosidase detection on semi-solid medium, clinical and environmental strains (Example 2); settings: 50 mg/l + iron citrate 500 mg/l; 18 hours; 10 strains tested
Escherichia coli = assay: as above; settings: 50 mg/l + iron citrate 500 mg/l; 18 hours; 41 strains tested
[2] = Manganese chloride 50 mg/l, 24 H
[3] = Manganese chloride 50 mg/l, 48 H

O=C1c2ccccc2C(=O)c2c1ccc(O[C@@H]1O[C@H](CO)[C@@H](O)[C@H](O)[C@H]1O)c2O [Alizarin-2-β-D-glucoside]
Color (Citrobacter koseri 059; 18 H): Mauve | Intensity (Citrobacter koseri 059; 18 H): 2 arbitrary units | Color (Citrobacter koseri 059; 24 H): Mauve | Intensity (Citrobacter koseri 059; 24 H): 3 arbitrary units | Color (Citrobacter koseri 059; 48 H): Mauve | Intensity (Citrobacter koseri 059; 48 H): 3.5 arbitrary units | Color (Listeria welshimeri 023; Aluminum sulfate 50 mg/l, 24 H): red | Intensity (Listeria welshimeri 023; Aluminum sulfate 50 mg/l, 24 H): 4 arbitrary units | Color (Listeria welshimeri 023; Aluminum sulfate 50 mg/l, 48 H): red | Intensity (Listeria welshimeri 023; Aluminum sulfate 50 mg/l, 48 H): 4 arbitrary units | Color (Listeria welshimeri 023; Control, no metal salt, 24 H): purple | Intensity (Listeria welshimeri 023; Control, no metal salt, 24 H): 2.3 arbitrary units | Color (Listeria welshimeri 023; Control, no metal salt, 48 H): purple | Intensity (Listeria welshimeri 023; Control, no metal salt, 48 H): 2.3 arbitrary units | Color (Listeria welshimeri 023; Iron citrate 50 mg/l, 24 H): purple | Intensity (Listeria welshimeri 023; Iron citrate 50 mg/l, 24 H): 4 arbitrary units | Color (Listeria welshimeri 023; Iron citrate 50 mg/l, 48 H): purple | Intensity (Listeria welshimeri 023; Iron citrate 50 mg/l, 48 H): 4 arbitrary units | Color (Listeria welshimeri 023; [2]): purple | Intensity (Listeria welshimeri 023; [2]): 2.3 arbitrary units | Color (Listeria welshimeri 023; [3]): purple | Intensity (Listeria welshimeri 023; [3]): 2.7 arbitrary units | Color (Listeria welshimeri 023; Tin chloride 50 mg/l, 24 H): orange | Intensity (Listeria welshimeri 023; Tin chloride 50 mg/l, 24 H): 3 arbitrary units | Color (Listeria welshimeri 023; Tin chloride 50 mg/l, 48 H): orange | Intensity (Listeria welshimeri 023; Tin chloride 50 mg/l, 48 H): 4 arbitrary units | Color (Listeria ivanovii 032; Aluminum sulfate 50 mg/l, 24 H): red | Intensity (Listeria ivanovii 032; Aluminum sulfate 50 mg/l, 24 H): 4 arbitrary units | Color (Listeria ivanovii 032; Aluminum sulfate 50 mg/l, 48 H): red | Intensity (Listeria ivanovii 032; Aluminum sulfate 50 mg/l, 48 H): 4 arbitrary units | Color (Listeria ivanovii 032; Control, no metal salt, 24 H): purple | Intensity (Listeria ivanovii 032; Control, no metal salt, 24 H): 2.3 arbitrary units | Color (Listeria ivanovii 032; Control, no metal salt, 48 H): purple | Intensity (Listeria ivanovii 032; Control, no metal salt, 48 H): 2.3 arbitrary units | Color (Listeria ivanovii 032; Iron citrate 50 mg/l, 24 H): purple | Intensity (Listeria ivanovii 032; Iron citrate 50 mg/l, 24 H): 4 arbitrary units | Color (Listeria ivanovii 032; Iron citrate 50 mg/l, 48 H): purple | Intensity (Listeria ivanovii 032; Iron citrate 50 mg/l, 48 H): 4 arbitrary units | Color (Listeria ivanovii 032; [2]): purple | Intensity (Listeria ivanovii 032; [2]): 2.3 arbitrary units | Color (Listeria ivanovii 032; [3]): purple | Intensity (Listeria ivanovii 032; [3]): 2.3 arbitrary units | Color (Listeria ivanovii 032; Tin chloride 50 mg/l, 24 H): orange | Intensity (Listeria ivanovii 032; Tin chloride 50 mg/l, 24 H): 3 arbitrary units | Color (Listeria ivanovii 032; Tin chloride 50 mg/l, 48 H): orange | Intensity (Listeria ivanovii 032; Tin chloride 50 mg/l, 48 H): 4 arbitrary units | Color ([1]; Aluminum sulfate 50 mg/l, 24 H): red | Intensity ([1]; Aluminum sulfate 50 mg/l, 24 H): 4 arbitrary units | Color ([1]; Aluminum sulfate 50 mg/l, 48 H): red | Intensity ([1]; Aluminum sulfate 50 mg/l, 48 H): 4 arbitrary units | Color ([1]; Control, no metal salt, 24 H): purple | Intensity ([1]; Control, no metal salt, 24 H): 2 arbitrary units | Color ([1]; Control, no metal salt, 48 H): purple | Intensity ([1]; Control, no metal salt, 48 H): 2 arbitrary units | Color ([1]; Iron citrate 50 mg/l, 24 H): purple | Intensity ([1]; Iron citrate 50 mg/l, 24 H): 4 arbitrary units | Color ([1]; Iron citrate 50 mg/l, 48 H): purple | Intensity ([1]; Iron citrate 50 mg/l, 48 H): 4 arbitrary units | Color [1, 2]: purple | Intensity [1, 2]: 2.7 arbitrary units | Color [1, 3]: purple | Intensity [1, 3]: 2.7 arbitrary units | Color ([1]; Tin chloride 50 mg/l, 24 H): orange | Intensity ([1]; Tin chloride 50 mg/l, 24 H): 3 arbitrary units | Color ([1]; Tin chloride 50 mg/l, 48 H): orange | Intensity ([1]; Tin chloride 50 mg/l, 48 H): 4 arbitrary units | Color (Listeria innocua 029; Aluminum sulfate 50 mg/l, 24 H): red | Intensity (Listeria innocua 029; Aluminum sulfate 50 mg/l, 24 H): 4 arbitrary units | Color (Listeria innocua 029; Aluminum sulfate 50 mg/l, 48 H): red | Intensity (Listeria innocua 029; Aluminum sulfate 50 mg/l, 48 H): 4 arbitrary units | Color (Listeria innocua 029; Control, no metal salt, 24 H): purple | Intensity (Listeria innocua 029; Control, no metal salt, 24 H): 2 arbitrary units | Color (Listeria innocua 029; Control, no metal salt, 48 H): purple | Intensity (Listeria innocua 029; Control, no metal salt, 48 H): 2.3 arbitrary units | Color (Listeria innocua 029; Iron citrate 50 mg/l, 24 H): purple | Intensity (Listeria innocua 029; Iron citrate 50 mg/l, 24 H): 4 arbitrary units | Color (Listeria innocua 029; Iron citrate 50 mg/l, 48 H): purple | Intensity (Listeria innocua 029; Iron citrate 50 mg/l, 48 H): 4 arbitrary units | Color (Listeria innocua 029; [2]): purple | Intensity (Listeria innocua 029; [2]): 2.3 arbitrary units | Color (Listeria innocua 029; [3]): purple | Intensity (Listeria innocua 029; [3]): 2.3 arbitrary units | Color (Listeria innocua 029; Tin chloride 50 mg/l, 24 H): orange | Intensity (Listeria innocua 029; Tin chloride 50 mg/l, 24 H): 3 arbitrary units | Color (Listeria innocua 029; Tin chloride 50 mg/l, 48 H): orange | Intensity (Listeria innocua 029; Tin chloride 50 mg/l, 48 H): 4 arbitrary units | Color (Listeria grayi 078; Aluminum sulfate 50 mg/l, 24 H): red | Intensity (Listeria grayi 078; Aluminum sulfate 50 mg/l, 24 H): 4 arbitrary units | Color (Listeria grayi 078; Aluminum sulfate 50 mg/l, 48 H): red | Intensity (Listeria grayi 078; Aluminum sulfate 50 mg/l, 48 H): 4 arbitrary units | Color (Listeria grayi 078; Control, no metal salt, 24 H): purple | Intensity (Listeria grayi 078; Control, no metal salt, 24 H): 2 arbitrary units | Color (Listeria grayi 078; Control, no metal salt, 48 H): purple | Intensity (Listeria grayi 078; Control, no metal salt, 48 H): 2.3 arbitrary units | Color (Listeria grayi 078; Iron citrate 50 mg/l, 24 H): purple | Intensity (Listeria grayi 078; Iron citrate 50 mg/l, 24 H): 4 arbitrary units | Color (Listeria grayi 078; Iron citrate 50 mg/l, 48 H): purple | Intensity (Listeria grayi 078; Iron citrate 50 mg/l, 48 H): 4 arbitrary units | Color (Listeria grayi 078; [2]): purple | Intensity (Listeria grayi 078; [2]): 2 arbitrary units | Color (Listeria grayi 078; [3]): purple | Intensity (Listeria grayi 078; [3]): 2 arbitrary units | Color (Listeria grayi 078; Tin chloride 50 mg/l, 24 H): orange | Intensity (Listeria grayi 078; Tin chloride 50 mg/l, 24 H): 3 arbitrary units | Color (Listeria grayi 078; Tin chloride 50 mg/l, 48 H): orange | Intensity (Listeria grayi 078; Tin chloride 50 mg/l, 48 H): 4 arbitrary units | Color (Listeria ivanovii 020; Aluminum sulfate 50 mg/l, 24 H): red | Intensity (Listeria ivanovii 020; Aluminum sulfate 50 mg/l, 24 H): 4 arbitrary units | Color (Listeria ivanovii 020; Aluminum sulfate 50 mg/l, 48 H): red | Intensity (Listeria ivanovii 020; Aluminum sulfate 50 mg/l, 48 H): 4 arbitrary units | Color (Listeria ivanovii 020; Control, no metal salt, 24 H): purple | Intensity (Listeria ivanovii 020; Control, no metal salt, 24 H): 2.3 arbitrary units | Color (Listeria ivanovii 020; Control, no metal salt, 48 H): purple | Intensity (Listeria ivanovii 020; Control, no metal salt, 48 H): 2.3 arbitrary units | Color (Listeria ivanovii 020; Iron citrate 50 mg/l, 24 H): purple | Intensity (Listeria ivanovii 020; Iron citrate 50 mg/l, 24 H): 4 arbitrary units | Color (Listeria ivanovii 020; Iron citrate 50 mg/l, 48 H): purple | Intensity (Listeria ivanovii 020; Iron citrate 50 mg/l, 48 H): 4 arbitrary units | Color (Listeria ivanovii 020; [2]): purple | Intensity (Listeria ivanovii 020; [2]): 2.7 arbitrary units | Color (Listeria ivanovii 020; [3]): purple | Intensity (Listeria ivanovii 020; [3]): 2.7 arbitrary units | Color (Listeria ivanovii 020; Tin chloride 50 mg/l, 24 H): orange | Intensity (Listeria ivanovii 020; Tin chloride 50 mg/l, 24 H): 3 arbitrary units | Color (Listeria ivanovii 020; Tin chloride 50 mg/l, 48 H): orange | Intensity (Listeria ivanovii 020; Tin chloride 50 mg/l, 48 H): 4 arbitrary units

O=C1c2ccccc2C(=O)c2c1ccc(O[C@@H]1O[C@H](CO)[C@H](O)[C@H](O)[C@H]1O)c2O [Alizarin-2-β-D-galactoside]
percentage of positive strains (Shigella sonnei): 100% | percentage of positive strains (Escherichia coli): 95%

From patent US7563592B2, “Alizarin-based chromogenic substrates, their uses and composition containing same” (Biomerieux, S.A., priority 1999, dated 2009)
